Assay results from patent US20170216240A1, “METHODS FOR MODULATING IKS CHANNEL ACTIVITY” (UNIVERSITY OF MIAMI, priority 2014, published 2017).
Entries after “also recorded” stand apart in the source; their conditions may differ.

Key:
[1] = tested on: isolated embryonic rat cardiomyocytes; assay: Spontaneous action potentials in rat cardiomyocytes, whole-cell patch clamp; type: cell-based; settings: for effect on arrhythmic firing induced by Chromanol 293B: 30 μM N-AT in the presence of 5 μM Chromanol 293B
Method: On gestation day (GD) 16 of pregnancy time-mated Sprague Dawley rats (Taconic, Denmark) were sacrificed in a CO2 chamber followed by cervical dislocation. Cell preparation of cardiomyocytes and culturing on glass coverslips were made (Danielsson, C. et al. Cardiovasc Res 97, 23-32 (2013)). Spontaneous action potentials were measured using the patch-clamp technique, whole cell configuration, 1-3 days after culturing. An Axopatch 200B patch-clamp amplifier, Digidata 1140A converter (Molecular Devices) and pClamp software (Molecular Devices) were used to acquire data. The extracellular solution contained (in mM): 140 NaCl, 5.4 KCl, 1 MgCl2, 1.8 CaCl2, 10 Glucose and 10 HEPES (pH 7.4, adjusted with NaOH). The intracellular solution contained (in mM): 130 K-gluconate, 9 KCl, 8 NaCl, 10 EGTA, 1 MgCl2, 10 HEPES and 3 MgATP (pH 7.3, adjusted with KOH). The solutions were perfused through the recording chamber (flow: 0.5 mL/min). All chemicals were purchased from Sigma-Aldrich. […] All experiments were carried out at 35° C. To analyze action potential characteristics a stable 60-seconds recording was selected before and after application of the test solution. The average data were then calculated for the complete trace in Clampfit 10 (Molecular Devices). Liquid junction potential was not adjusted for.
Average values are expressed as mean±SEM. Mean values for shifts in voltage dependence were analyzed using a two-tailed one samplet-test where mean values were compared with a hypothetical value of 0 or where mean values were compared to each other. Effects of N-AT on action potential peak amplitude and RMP in cardiomyocytes were analyzed using paired two-tailed t-test. Effects of N-AT on the relative change of APD and RR-interval were analyzed using two-tailed one samplet-test where mean values were compared with a hypothetical value of 1. P<0.05 is considered as statistically significant.
The effect of N-arachidonoyl taurine on isolated embryonic rat cardiomyocytes was tested. A sub-saturating concentration of the IKs channel blocker Chromanol 293B, which is known to induce arrhythmia (Aiba, T. et al. J Am Coll Cardiol 45, 300-307 (2005)), was applied to the cardiomyocytes. In general, two types of effects are seen upon Chromanol 293B application: (1) arrhythmic firing (FIG. 8A-B) or (2) a slowing of the frequency of spontaneous action potential firing (FIG. 8D-E). The different effects are most likely due to different subtypes of cardiomyocytes. […] The anti-arrhythmic effect of N-arachidonoyl taurine was associated with a shortening of the cardiomyocyte action potential duration and an increase in the frequency of action potential firing (FIG. 8G-I, Table 2). 30 μM N-arachidonoyl taurine had no effect on the resting membrane potential (Table 2) but decreased the action potential peak amplitude by −9±1 mV (Table 2).
Cardiomyocytes were isolated from rat heart and the spontaneous electrical activity in the cardiomyocytes was measured using the current clamp mode of patch clamp. […] Further, arrhythmia was induced in these cardiomyocytes by the IKs specific drug chromanol. In the presence of 5 μM chromanol, there are clearly additional action potentials caused by early after depolarizations (EADs) (FIG. 9D). EADs are known to accompany Long QT and could lead to ventricular fibrillation and cardiac sudden death in the intact heart. […] N-AT and chromanol are known to bind to different parts of the IKs channels (chromanol is a pore blocker, whereas N-AT is binding to the voltage sensor), so this effect of N-AT is not just a competition with chromanol to the same binding site. Rather, N-AT increases the currents by attracting the voltage sensor, whereas chromanol is known to block the currents by binding to the pore.

[2] = tested on: intact guinea pig hearts; assay: Restoration of QT interval in intact hearts with E4031-induced Long QT; settings: ECG and ventricular surface action potential
Text: Long QT syndrome was induced in intact guinea pig hearts by administration of the drug E4031, a HERG channel blocker.

[3] = tested on: Caco-2 cells
[4] = in vitro; settings: human, Caco-2
[5] = 30 μM N-AT vs control, listed as N-arachidonoyl taurine

- permeability coefficient (Papp) [3]: 22×10^−6 cms^−1
- efflux ratio [4]: 1.9
Structure (SMILES): CCCCC/C=C\C/C=C\C/C=C\C/C=C\CCCC(=O)NCCS(=O)(=O)O [N-AT, N-arachidonoyl taurine]
- APD30, Mean ± SEM ([1]; 30 μM N-AT): 211 ± 37 ms
- APD50, Mean ± SEM ([1]; 30 μM N-AT): 279 ± 47 ms
- APD70, Mean ± SEM ([1]; 30 μM N-AT): 336 ± 50 ms
- Amplpeak (peak action potential amplitude), Mean ± SEM ([1]; 30 μM N-AT): 32 ± 2 mV
- RMP (resting membrane potential), Mean ± SEM ([1]; 30 μM N-AT): −56 ± 2 mV
- RR-interval, Mean ± SEM ([1]; 30 μM N-AT): 2075 ± 197 ms
- length of the ventricular action potential / action potential duration ([1]; 30 μM N-AT): reduced the length of the ventricular action potential; also recorded: shortened the cardiomyocyte action potential duration
- effect on arrhythmic firing induced by Chromanol 293B [1]: restores rhythmic firing; also recorded: reversed the arrhythmic behavior
- effect on arrhythmic firing induced by Chromanol 293B ([1]; listed as N-arachidonoyl taurine): reversed the effect
- early after depolarizations (EADs) ([1]; 30 μM N-AT in the presence of 5 μM chromanol): removed these EADs
- APD30, Change (relative change) ([1]; 30 μM N-AT vs control): 0.81 ± 0.04
- APD50, Change (relative change) ([1]; 30 μM N-AT vs control): 0.83 ± 0.03
- APD70, Change (relative change) ([1]; 30 μM N-AT vs control): 0.84 ± 0.03
- Amplpeak, Change ([1]; 30 μM N-AT vs control): −9 ± 1 mV
- RR-interval, Change (relative change) ([1]; 30 μM N-AT vs control): 0.74 ± 0.05
- Amplpeak, Change [1, 5]: −9±1 mV
- RMP, Change [1, 5]: no effect
- QT interval in hearts with prolonged QT induced by E4031 [2]: restores the QT interval
